Usually IC50 stands for the point on the concentration scale where inhibition reaches its midpoint.

Read-outs that look alike come from different tables or passages of the source.

The target in one assay is T1, Human BACE1 (Homo sapiens, UniProt P56817).
T1 construct: the soluble part of the human β-Secretase1 (AA1-AA460) was cloned using the BACE1(1-460)-(AVT)-Fc-pGEN-IRES-neo mammalian expression vector; AVT linker (C); made in house
The assay is described as follows: Diluted TR-FRET assay. The conditions noted are these: 50 times less enzyme, 6.5 h reaction time at r.t.; read-out: IC50 BACE1 (dil. TR-FRET). It is filed as biochemical. The method, boiled down: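 Human BACE1 (residues 1-460) was fused to an IgG1 Fc affinity tag and stably expressed in HEK 293 cells. Using a Multidrop Combi, 7 μL enzyme was added to 0.8 μL compound in dimethylsulphoxide and incubated 10 minutes. Reactions were stopped with 5.5 μL NaOAC Stop solution (pH 9), and TR-FRET fluorescence was read on a Pherastar HTRF module.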
On the technique in general: Time-resolved FRET reads energy transfer from a long-lived donor to a nearby acceptor.

The target in a further assay is T2, Human BACE2 (Homo sapiens, UniProt Q9Y5Z0).
T2 construct: the soluble part of the human β-Secretase2 (AA1-AA473) was cloned using BACE2(1-473)-(AVT)-Fc-pDEST12.2 mammalian expression vector; AVT linker (C); made in house
T2 sequence (Q9Y5Z0 21-473): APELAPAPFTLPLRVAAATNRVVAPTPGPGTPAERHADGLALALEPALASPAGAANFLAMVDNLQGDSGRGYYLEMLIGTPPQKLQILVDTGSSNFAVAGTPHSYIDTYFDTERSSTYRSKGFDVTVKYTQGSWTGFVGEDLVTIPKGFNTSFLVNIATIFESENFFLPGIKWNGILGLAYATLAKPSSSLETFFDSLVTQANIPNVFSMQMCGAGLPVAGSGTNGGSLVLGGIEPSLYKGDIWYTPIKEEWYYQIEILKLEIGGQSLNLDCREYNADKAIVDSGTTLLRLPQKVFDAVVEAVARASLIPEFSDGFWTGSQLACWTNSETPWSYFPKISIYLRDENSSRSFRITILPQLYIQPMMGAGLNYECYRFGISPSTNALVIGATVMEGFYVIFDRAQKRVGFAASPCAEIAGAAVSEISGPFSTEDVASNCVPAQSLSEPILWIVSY
The assay is described as follows: TR-FRET assay. The conditions noted are these: substrate 100 nM, pH4.5. Format: biochemical.

The test system of a further assay is SH-SY5Y cells. As to the kind of experiment: sAPPβ release assay.
Where [1] appears, read: Homo sapiens, SH-SY5Y, read-out: IC50 Cell (sAPPβ release, nM), SH-SY5Y cells, compounds incubated 16-17 h.
The mark [2] stands for this setting: read-out: IC50 Cell (sAPPβ release), SH-SY5Y cells, compounds incubated 16-17 h.

T1 sequence (P56817 22-460): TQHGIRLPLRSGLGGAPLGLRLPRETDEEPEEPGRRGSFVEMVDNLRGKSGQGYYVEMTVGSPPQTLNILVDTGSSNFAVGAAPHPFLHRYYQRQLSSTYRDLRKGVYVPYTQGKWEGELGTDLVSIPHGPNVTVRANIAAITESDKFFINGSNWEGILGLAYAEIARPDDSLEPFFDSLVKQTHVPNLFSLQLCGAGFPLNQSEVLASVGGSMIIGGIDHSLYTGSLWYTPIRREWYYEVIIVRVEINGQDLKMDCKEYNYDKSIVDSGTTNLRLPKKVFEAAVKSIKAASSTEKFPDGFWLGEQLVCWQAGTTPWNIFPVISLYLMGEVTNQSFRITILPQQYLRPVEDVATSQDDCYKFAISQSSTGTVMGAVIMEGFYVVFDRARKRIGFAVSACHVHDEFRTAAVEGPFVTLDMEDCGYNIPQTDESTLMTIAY
Method for SH-SY5Y cells: Cells were thawed and seeded at a concentration of around 10000 cells/well in DMEM/F-12 with Glutamax, 10% FCS and 1% non-essential amino acids to a 384-well tissue culture treated plate, 30 μL cell susp/well. The cell plates were then incubated for 7-24 h at 37° C., 5% CO2.
The cell medium was removed, followed by addition of 50 μL compound diluted in DMEM/F-12 with Glutamax, 10% FCS, 1% non-essential amino acids to a final cone of 0.5% DMSO. The compounds were incubated with the cells for 16-17 h (overnight) at 37° C., 5% CO2.
Meso Scale Discovery (MSD) plates were used for the detection of sAPP release. MSD sAPPβ plates were blocked in 1% BSA in Tris wash buffer for 1 h on shake at r.t. and washed 1 time in Tris wash buffer. […] The MSD plates were incubated with shaking at r.t. for 2 h and the media discarded. 10 μL detection antibody was added (1 nM) per well followed by incubation with shaking at r.t. for 2 h and then discarded. 35 μL Read Buffer was added per well and the plates were read in a Meso Scale Discovery SECTOR6000 Imager.

Take `[2H]C([2H])([2H])O[C@H]1CC[C@@]2(Cc3ccc(-c4cnccc4F)cc3[C@]23N=C(N)OC3([2H])[2H])C[C@@H]1C` [Compound 104, {(1S,1′R,3S,4S)-6′-(4-fluoropyridin-3-yl)-4-(methoxy-d3)-3-methyl-3′H,5″H-dispiro[cyclohexane-1,2′-indene-1′,4″-oxazol]-5″,5″-d2-2″-amine}]: the IC50 at Human BACE1 was determined as 0.077 µM; on Human BACE2 (enzyme 2.7 μg/mL), 1.01 µM; in the assay on SH-SY5Y cells (setting [1]) it was 0.7 nM.

For `[2H]C([2H])([2H])O[C@H]1CC[C@@]2(Cc3ccc(-c4cncc(C#N)c4)cc3[C@]23N=C(N)OC3([2H])[2H])C[C@@H]1C` [Compound 105, {(1S,1′R,3S,4S)-6′-(5-cyanopyridin-3-yl)-4-(methoxy-d3)-3-methyl-3′H,5″H-dispiro[cyclohexane-1,2′-indene-1′,4″-oxazol]-5″,5″-d2-2″-amine}], the 50% inhibitory concentration (IC50) on Human BACE1 amounted to 0.013 µM; against Human BACE2 (enzyme 2.7 μg/mL), 0.071 µM; with SH-SY5Y cells (setting [1]) it was 0.4 nM.

For `[2H]C([2H])([2H])O[C@@H]1CC[C@]2(Cc3ccc(-c4cc(Cl)cnc4F)cc3[C@]23N=C(N)OC3([2H])[2H])C[C@H]1C` [Compound 106, {(1R,1′R,3R,4R)-4-(methoxy-d3)-3-methyl-6′-(2-fluoro-5-chloropyridin-3-yl)-3′H,5″H-dispiro[cyclohexane-1,2′-indene-1′,4″-oxazol]-5″,5″-d2-2″-amine}], the half-inhibitory concentration (IC50) came to 0.049 µM on Human BACE1, 0.08 µM against Human BACE2 (enzyme 2.7 μg/mL) and 2.8 nM in the assay on SH-SY5Y cells (setting [1]).

On to `[2H]C([2H])([2H])O[C@@H]1CC[C@]2(Cc3ccc(-c4cnccc4F)cc3[C@]23N=C(N)OC3([2H])[2H])C[C@H]1C` [Compound 107, {(1R,1′R,3R,4R)-4-(methoxy-d3)-3-methyl-6′-(4-fluoropyridin-3-yl)-3′H,5″H-dispiro[cyclohexane-1,2′-indene-1′,4″-oxazol]-5″,5″-d2-2″-amine}], for which the IC50 on Human BACE1 was determined as 0.294 µM; against Human BACE2 (enzyme 2.7 μg/mL) it was 2.11 µM; in the assay with SH-SY5Y cells (setting [1]), 1.8 nM.

As to `[2H]C([2H])([2H])O[C@@H]1CC[C@]2(Cc3ccc(-c4cncc(C#N)c4)cc3[C@]23N=C(N)OC3([2H])[2H])C[C@H]1C` [Compound 108, {(1R,1′R,3R,4R)-4-(methoxy-d3)-3-methyl-6′-(5-cyanopyridin-3-yl)-3′H,5″H-dispiro[cyclohexane-1,2′-indene-1′,4″-oxazol]-5″,5″-d2-2″-amine}], the IC50 is 0.056 µM on Human BACE1, 0.058 µM on Human BACE2 (enzyme 2.7 μg/mL) and 1.5 nM in the assay with SH-SY5Y cells (setting [1]).

As to `[2H]C1([2H])OC(N)=NC12c1cc(-c3cc(F)cc(F)c3)ccc1C[C@@]21CC[C@H](OC)[C@@H](C)C1` (stereo partly drawn) [Compound 110, {(1S,3S,4S)-4-methoxy-3-methyl-6′-(3,5-difluorophenyl)-3′H,5″H-dispiro[cyclohexane-1,2′-indene-1′,4″-oxazol]-5″,5″-d2-2″-amine}], the 50% inhibitory concentration (IC50) on Human BACE1 is 0.067 µM; at Human BACE2 (enzyme 2.7 μg/mL), 0.096 µM; in the assay on SH-SY5Y cells (setting [1]) it was 10 nM.

For the molecule `[2H]C1([2H])OC(N)=NC12c1cc(-c3ccnc(O)c3)ccc1C[C@@]21CC[C@H](OC)[C@@H](C)C1` (stereo partly drawn) [Compound 111], the IC50 was 2.16 µM on Human BACE1, over 5 µM against Human BACE2 (enzyme 2.7 μg/mL) and 89 nM with SH-SY5Y cells (setting [1]).

For the molecule `[2H]C1([2H])OC(N)=N[C@]12c1cc(-c3ccncc3)ccc1C[C@@]21CC[C@H](OC)[C@@H](C)C1` [Compound 112, {(1S,1′R,3S,4S)-4-methoxy-3-methyl-6′-(pyridin-4-yl)-3′H,5″H-dispiro[cyclohexane-1,2′-indene-1′,4″-oxazol]-5″,5″-d2-2″-amine}], the values for the half-inhibitory concentration (IC50) at Human BACE1, on Human BACE2 (enzyme 2.7 μg/mL) and with SH-SY5Y cells (setting [1]) were 2.03 µM, 4.82 µM and 14 nM, respectively.

`[2H]C1([2H])OC(N)=N[C@]12c1cc(-c3cncc(C#N)c3)ccc1C[C@@]21CC[C@H](OC)[C@@H](C)C1` [Compound 113, {(1S,1′R,3S,4S)-4-methoxy-3-methyl-6′-(5-cyanopyridin-3-yl)-3′H,5″H-dispiro[cyclohexane-1,2′-indene-1′,4″-oxazol]-5″,5″-d2-2″-amine}]: the values for the IC50 on Human BACE1, at Human BACE2 (enzyme 2.7 μg/mL) and with SH-SY5Y cells (setting [1]) were 0.017 µM, 0.064 µM and 0.2 nM, respectively.

With `[2H]C1([2H])OC(N)=N[C@]12c1cc(-c3ccccn3)ccc1C[C@@]21CC[C@H](OC)[C@@H](C)C1` [Compound 114, {(1S,1′R,3S,4S)-4-methoxy-3-methyl-6′-(pyridin-2-yl)-3′H,5″H-dispiro[cyclohexane-1,2′-indene-1′,4″-oxazol]-5″,5″-d2-2″-amine}], the half-inhibitory concentration (IC50) stood at 0.77 µM on Human BACE1, 1.84 µM against Human BACE2 (enzyme 2.7 μg/mL) and 8 nM in the assay on SH-SY5Y cells (setting [1]).

For the molecule `[2H]C1([2H])OC(N)=N[C@]12c1cc(-c3ccnnc3)ccc1C[C@@]21CC[C@H](OC)[C@@H](C)C1` [Compound 115, {(1S,1′R,3S,4S)-4-methoxy-3-methyl-6′-(pyridazin-4-yl)-3′H,5″H-dispiro[cyclohexane-1,2′-indene-1′,4″-oxazol]-5″,5″-d2-2″-amine}], the values for the IC50 at Human BACE1, on Human BACE2 (enzyme 2.7 μg/mL) and in the assay with SH-SY5Y cells (setting [1]) were 0.346 µM, 2.22 µM and 13 nM, respectively.

As to `[2H]C1([2H])OC(N)=N[C@]12c1cc(-c3cncnc3C)ccc1C[C@]21CC[C@@H](OC)CC1` [Compound 116, {(1r,1′R,4R)-4-methoxy-6′-(4-methylpyrimidin-5-yl)-3′H,5″H-dispiro[cyclohexane-1,2′-indene-1′,4″-oxazol]-5″,5″-d2-2″-amine}], the half-maximal inhibitory concentration (IC50) at Human BACE1 was 1.13 µM; on Human BACE2 (enzyme 2.7 μg/mL), over 5 µM; in the assay on SH-SY5Y cells (setting [1]), 26 nM.

As for `[2H]C1([2H])OC(N)=N[C@]12c1cc(C#N)ccc1C[C@]21CC[C@@H](OC)[C@H](C)C1` [Compound 119, {(1R,1′R,3R,4R)-6′-cyano-4-methoxy-3-methyl-3′H,5″H-dispiro[cyclohexane-1,2′-indene-1′,4″-oxazol]-5″,5″-d2-2″-amine}], the IC50 at Human BACE1 was 0.294 µM; against Human BACE2 (enzyme 2.7 μg/mL) it was 1.09 µM; in the assay on SH-SY5Y cells (setting [1]), 13 nM.

`[2H]C1([2H])OC(N)=N[C@]12c1cc(C#N)ccc1C[C@@]21CC[C@H](OC)[C@@H](C)C1` [Compound 120, {(1S,1′R,3S,4S)-6′-cyano-4-methoxy-3-methyl-3′H,5″H-dispiro[cyclohexane-1,2′-indene-1′,4″-oxazol]-5″,5″-d2-2″-amine}]: the IC50 stood at 0.191 µM on Human BACE1, 1.63 µM against Human BACE2 (enzyme 2.7 μg/mL) and 7 nM in the assay on SH-SY5Y cells (setting [1]).

Regarding “(1r,3R,4r,5S)-4-methoxy-3,5-dimethyl-6′-(5-(trifluoromethyl)pyridin-3-yl)-3′H,5″H-dispiro[cyclohexane-1,2′-indene-1′,4″-oxazol]-2″-amine [Compound 30]”, the 50% inhibitory concentration (IC50) was 0.169 µM at Human BACE1, 0.344 µM against Human BACE2 (enzyme […]) and 11.3 nM with SH-SY5Y cells (setting [2]).

“(1′R,4′S)-4′-methoxy-6″-(pyridin-3-yl)-3″H,5′″H-trispiro[cyclopropane-1,3′-cyclohexane-1′,2″-indene-1″,4′″-oxazol]-5′″,5′″-d2-2′″-amine and (1′S,4′R)-4′-methoxy-6″-(pyridin-3-yl)-3″H,5′″H-trispiro[cyclopropane-1,3′-cyclohexane-1′,2″-indene-1″,4′″-oxazol]-5′″,5′″-d2-2′″-amine [Compound 87]”: the IC50 at Human BACE1 came to 0.262 µM; on Human BACE2 (enzyme […]) it was 3.48 µM; with SH-SY5Y cells (setting [2]) it was 4.7 nM.

Regarding “(1′R,4′S)-4′-methoxy-6″-(pyrimidin-5-yl)-3″H,5′″H-trispiro[cyclopropane-1,3′-cyclohexane-1′,2″-indene-1″,4′″-oxazol]-5′″,5′″-d2-2′″-amine and (1′S,4′R)-4′-methoxy-6″-(pyrimidin-5-yl)-3″H,5′″H-trispiro[cyclopropane-1,3′-cyclohexane-1′,2″-indene-1″,4′″-oxazol]-5′″,5′″-d2-2′″-amine [Compound 86]”, the figures for the IC50 at Human BACE1, against Human BACE2 (enzyme […]) and in the assay on SH-SY5Y cells (setting [2]) were 0.144 µM, 4.75 µM and 5.9 nM, respectively.

Source of the values: patent US10053453B2, “Compounds and their use as BACE inhibitors” (AstraZeneca AB, priority 2014, dated 2018).
